Columns and labels:
[1] = tested on: T1, Bordetella sp. HSO16 laccase (Hb16c laccase); experiment: ABTS oxidation at […] nm, Lineweaver-Burk; type: biochemical; settings: crude laccase; standard assay potassium phosphate pH 6, 30 °C
T1 construct: gene cueO; crude culture supernatant, native secreted laccase, not purified; several laccase-like genes inferred by PCR
From the text: HSO16 laccase (Hb16c laccase)

[2] = tested on: T2, Stenotrophomonas sp. BIJ16 laccase (Berl1^1b2 laccase); experiment: ABTS oxidation at […] nm, Lineweaver-Burk; type: biochemical; settings: crude laccase; standard assay potassium phosphate pH 6, 30 °C
T2 construct: gene MCOStm; crude culture supernatant, native secreted laccase, not purified; several laccase-like genes inferred by PCR
From the text: BIJ16 laccase (Berl1^1b2 laccase)

CCn1c(=NN=c2sc3cc(S(=O)(=O)O)ccc3n2CC)sc2cc(S(=O)(=O)O)ccc21 [ABTS, 2,2’-azino-bis (3-ethylbenzothiazoline-6-sulfonic acid)]
Km [1]: 1.09 µM | Km [2]: 0.636 µM

Source: publication PMC6920499, “Sustainability potentials of novel laccase tinctures from Stenotrophomonas maltophilia BIJ16 and Bordetella bronchiseptica HSO16: From dye decolourization to denim bioscouring” (Biotechnology Reports, 2019)
